Data reported in PubChem BioAssay (NCI).
“And” between values parts separate entries of the source, which are not always exact repeats. Identical values can stand only once.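 How tested: cells in 96-well plates exposed to compound for 48 hours at five concentrations. Here, GI50 denotes the concentration required for 50% inhibition of growth. The concentration for full growth arrest is given as TGI.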

How the values were obtained:
Assay in all cases: growth of human tumour cells (NCI), 48 h
[1] = system: MDA-MB-435
[2] = system: HOP-92 NSCLC
[3] = system: MCF7 breast
[4] = system: OVCAR-8 ovarian
[5] = system: KM12 colon
[6] = system: U251 CNS
[7] = system: NCI-H460 lung
[8] = system: MDA-MB-231 breast
[9] = system: SK-MEL-5 melanoma
[10] = system: HCC-2998 colon

Row | SMILES | GI50 [1] | TGI [1] | GI50 [2] | TGI [2] | GI50 [3] | TGI [3] | GI50 [4] | TGI [4] | GI50 [5] | TGI [5] | GI50 [6] | TGI [6] | GI50 [7] | TGI [7] | GI50 [8] | TGI [8] | GI50 [9] | TGI [9] | GI50 [10] | TGI [10]
1 | O=C(NC1CCN(Cc2ccccc2)CC1)c1cc(C(=O)NC2CCN(Cc3ccccc3)CC2)cc(C(=O)NC2CCN(Cc3ccccc3)CC2)c1 | 0.923 µM | 1.85 µM | 5.55 µM | 12.3 µM | 0.946 µM | 1.85 µM | 12.7 µM | 43.4 µM | 3.37 µM | 12.1 µM | 1.52 µM | 5.66 µM | 8.07 µM | 16.9 µM | 2.57 µM | 11.6 µM | 7.9 µM | 16.9 µM | 7.37 µM | 16.6 µM
2 | O=c1ccccc(-c2ccc(-c3ccco3)cc2)c1O | 1.85 µM | > 100 µM | 2.05 µM | 39.8 µM | 0.412 µM | 29.8 µM | 0.507 µM | 29 µM | 0.743 µM | 17.5 µM | 0.87 µM | 12.7 µM | 0.408 µM | 10.8 µM | 0.704 µM | 44.4 µM | 0.935 µM | 8.44 µM | 0.691 µM | 33.2 µM
3 | CC(C)(C)N1CC(OC(N)=O)C1 | > 100 µM | > 100 µM | > 100 µM | > 100 µM | > 100 µM | > 100 µM | > 100 µM | > 100 µM | > 100 µM | > 100 µM | > 100 µM | > 100 µM | > 100 µM | > 100 µM | > 100 µM | > 100 µM | > 100 µM | > 100 µM | > 100 µM | > 100 µM
4 | N#Cc1nn(C2OC(COC(=O)c3ccccc3)C(OC(=O)c3ccccc3)C2OC(=O)c2ccccc2)c2nc[nH]c(=O)c12 (configuration not stated) |  | > 100 µM |  |  |  | > 100 µM |  | > 100 µM |  |  |  | > 100 µM |  | > 100 µM |  | > 100 µM |  | 65.6 µM |  | > 100 µM
5 | Oc1cccc(Cn2c(-c3cccc(O)c3O)nc3ccccc32)c1O | 2.13 µM | 15.3 µM | 36.8 µM | > 100 µM | 1.44 µM | 13.8 µM | 11.7 µM | 53.1 µM | 8.62 µM | 30.2 µM | 4.44 µM | 26.2 µM | 3.59 µM | 16.3 µM | 0.92 µM | 7.71 µM | 5.76 µM | 18.1 µM | 11 µM | 30 µM
6 | O=C1/C(=C/c2ccccc2)CN(CCC(=O)N2C/C(=C\c3ccccc3)C(=O)/C(=C/c3ccccc3)C2)C/C1=C\c1ccccc1 | 0.683 µM | 5.68 µM | 10.4 µM | 29.7 µM | 0.182 µM | 26.3 µM | 5.4 µM | > 100 µM | 0.911 µM | 7.48 µM | 1.29 µM | 11.3 µM | 35.9 µM | > 100 µM | 10.7 µM | 56.2 µM | 14.1 µM | 47.2 µM | 1.71 µM | 8 µM
7 | O=C(O[C@H]1CN[C@H](C#Cc2cc3ncnc(Nc4ccc(OCc5cccc(F)c5)c(Cl)c4)c3s2)C1)N1CCOCC1 | 9.85 µM | > 25 µM | 1.45 µM | 9.96 µM | 8.57 µM | > 25 µM | 7.35 µM | > 25 µM | 5.07 µM | 11.2 µM | 8.7 µM | > 25 µM | 6.4 µM | > 25 µM | 5.09 µM | 14.5 µM | 8.55 µM | > 25 µM | 5.01 µM | 12.6 µM
8 | COc1ccccc1N1CCN(C(=O)c2ccc(NS(=O)(=O)c3cccc4cccnc34)cc2)CC1 | > 100 µM | > 100 µM | > 100 µM | > 100 µM | > 49.4 µM | > 100 µM | > 43.5 µM | > 100 µM | > 100 µM | > 100 µM | 78.2 µM | > 100 µM | > 100 µM | > 100 µM | > 53.6 µM | > 100 µM | > 100 µM | > 100 µM | > 100 µM | > 100 µM
9 | C[C@@H](Oc1cc(NS(=O)(=O)N2CCC2)nc(SCc2cccc(F)c2F)n1)[C@@H](O)CO | > 100 µM | > 100 µM | > 100 µM | > 100 µM | > 100 µM | > 100 µM | > 100 µM | > 100 µM | > 100 µM | > 100 µM | > 100 µM | > 100 µM | > 100 µM | > 100 µM | > 100 µM | > 100 µM | > 100 µM | > 100 µM | > 100 µM | > 100 µM
10 | O=C1/C(=C/c2ccccc2Br)COc2ccc(O)c(O)c21 | 1.14 µM | 4.91 µM | 2.71 µM | 9 µM | 0.583 µM | 6.02 µM | 1.31 µM | 12.2 µM | 1.61 µM | 4.78 µM | 1.09 µM | 2.33 µM | 2.13 µM | 5.64 µM | 1.42 µM | 6.17 µM | 1.63 µM | 3.01 µM | 1.83 µM | 3.4 µM
11 | Cc1ccc(C(=O)CCC2C(=O)CC(C)(C)CC2=O)cc1 |  | > 100 µM |  | > 100 µM |  | > 100 µM |  | > 100 µM |  | > 100 µM |  | > 100 µM |  | > 100 µM |  | > 100 µM |  | > 100 µM |  | > 100 µM
12 | Cc1ccc2c(N/N=C\c3ccco3)cc(C)nc2n1 | 2.63 µM | 10.7 µM |  |  | 3.28 µM | 15.5 µM | 5.7 µM | 24 µM | 4.98 µM | 17.9 µM | 1.94 µM | 7.06 µM | 3.24 µM | 11.8 µM | 3.53 µM | 13.5 µM | 10.1 µM | 22.3 µM | 2.7 µM | 7.4 µM
13 | CCC1CCCCN1C(=S)N/N=C(\C)c1ccccn1 (configuration not stated) | 0.127 µM | 1.79 µM | 0.175 µM | 1.85 µM | < 0.0121 µM | 4.2 µM | < 0.0255 µM | 2.06 µM | 0.0732 µM | 1.52 µM | < 0.0172 µM | 6.16 µM | 0.0479 µM | 3.17 µM | 0.0922 µM | 3.69 µM | 0.194 µM | 1.59 µM | 0.156 µM | 2.76 µM
14 | CNC(=O)c1cncc(/C=C/c2c(C)cccc2C)c1 | > 25 µM | > 25 µM | 3.34 µM | 22.9 µM | > 25 µM | > 25 µM | > 25 µM | > 25 µM | > 25 µM | > 25 µM | > 25 µM | > 25 µM | > 25 µM | > 25 µM | 21.1 µM | > 25 µM | > 25 µM | > 25 µM | > 25 µM | > 25 µM
15 | O=C1c2cccc3cc([N+](=O)[O-])cc(c23)C(=O)N1CCN1CCCC1 | 1.31 µM | 2.99 µM | 0.355 µM | 2.79 µM | 0.309 µM | 3.83 µM | 0.566 µM | 4.38 µM | 0.551 µM | 9.02 µM | 0.315 µM |  | 0.161 µM | 0.902 µM | 1.56 µM | 11.1 µM | 0.293 µM | 0.943 µM | 0.582 µM | 2.74 µM
16 | COc1cc2c(Nc3ccc(Br)cc3F)ncnc2cc1OCC1CCN(C)CC1 | 1.74 µM and 3.81 µM | 3.61 µM and > 10 µM | 0.527 µM and 0.454 µM | 4.07 µM and 6.91 µM | 2.52 µM and 4.67 µM | 16 µM and > 10 µM | 5 µM and 7.4 µM | 18 µM and > 10 µM | 8.94 µM and > 10 µM | 21.4 µM and > 10 µM | 4.81 µM and 7.68 µM | 17.1 µM and > 10 µM | 4.69 µM and 9.98 µM | 17 µM and > 10 µM | 2.19 µM and 3.62 µM | 8.29 µM and > 10 µM | 4.38 µM and 5.5 µM | 8.94 µM and > 10 µM | 7.38 µM and > 10 µM | 21.6 µM and > 10 µM
17 | CCCCNC(=O)Oc1ccc2c(=O)c3sc4c(=O)c5ccccc5c(=O)c4c3c(=O)c2c1 | 0.172 µM | 0.328 µM |  |  | 0.429 µM | 2.18 µM | 1.44 µM | 4.76 µM | 2 µM | 9.21 µM | 1.02 µM | 2.26 µM | 0.195 µM | 0.395 µM | 1.39 µM | 5.91 µM | 0.103 µM | 0.224 µM | 0.511 µM | 2.01 µM
18 | COc1ccc(-c2csc(NC(=O)N3CCN(c4cc5c(cc4F)c(=O)c(C(=O)O)cn5C4CC4)CC3)n2)cc1 | 2.54 µM | > 100 µM | 1.6 µM | 6.56 µM | 2.6 µM | > 100 µM |  |  | 1.63 µM | > 100 µM | 0.66 µM | 16.8 µM | 1.29 µM | > 100 µM | 2.71 µM | > 100 µM |  |  | 3.83 µM | > 100 µM
19 | CN(C)Cc1cccc(CN(C)C)[c]1[Sn]([Br])([c]1ccccc1)[c]1ccccc1 | 17.1 µM | 41.6 µM | 2.15 µM | 9.74 µM | 10.5 µM | 24.5 µM | 12.4 µM | 26.2 µM | 11 µM | 28.1 µM | 3.71 µM | 15.5 µM | 13.4 µM | 65.9 µM | 15.9 µM | 38.3 µM | 11 µM | 24.7 µM |  | 
